How the values were obtained:
[1] = Lipophilicity, logP of compound; type: physicochemical; details: octanol/water
[2] = target: T1, Lanosterol 14-alpha demethylase (Homo sapiens, UniProt Q16850); assay: Inhibition of recombinant full length human CYP51 expressed in Escherichia coli incubated for 1 min using [3H] lanosterol as substrate by HPLC analysis
T1 sequence (Q16850 whole entry): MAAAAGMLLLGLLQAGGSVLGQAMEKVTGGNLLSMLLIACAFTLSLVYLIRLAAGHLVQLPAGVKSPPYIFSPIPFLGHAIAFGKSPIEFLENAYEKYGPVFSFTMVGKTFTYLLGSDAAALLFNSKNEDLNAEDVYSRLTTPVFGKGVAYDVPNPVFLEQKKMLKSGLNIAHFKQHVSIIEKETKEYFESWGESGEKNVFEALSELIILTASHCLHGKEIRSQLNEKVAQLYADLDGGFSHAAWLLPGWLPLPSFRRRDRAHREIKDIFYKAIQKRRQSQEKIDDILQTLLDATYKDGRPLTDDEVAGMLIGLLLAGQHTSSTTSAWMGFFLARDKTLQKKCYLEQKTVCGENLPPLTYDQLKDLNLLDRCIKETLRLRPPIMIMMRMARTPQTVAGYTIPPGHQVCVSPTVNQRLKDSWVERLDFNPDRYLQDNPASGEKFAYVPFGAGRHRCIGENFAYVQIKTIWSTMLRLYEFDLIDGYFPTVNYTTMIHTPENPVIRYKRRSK

[3] = target: T2, CYP51 (lanosterol 14-alpha demethylase) (Homo sapiens, UniProt Q16850); assay: Inhibition of recombinant full length human CYP51 expressed in Escherichia coli at inhibitor/enzyme ratio 50/1 incubated for 1 hr using [3H] lanosterol as substrate by HPLC analysis relative to control; design: concentration or dose not given beside the values; details: probe [3H] lanosterol
T2 sequence (Q16850 whole entry): T1 sequence (Q16850 whole entry)

[4] = target: T2, CYP51 (lanosterol 14-alpha demethylase); assay: Inhibition of recombinant full length human CYP51 expressed in Escherichia coli at inhibitor/enzyme ratio 25/1 incubated for 1 hr using [3H] lanosterol as substrate by HPLC analysis relative to control; details: probe [3H] lanosterol
[5] = target: T1, Lanosterol 14-alpha demethylase; assay: Inhibition of recombinant full length human CYP51 expressed in Escherichia coli incubated for 1 hr using [3H] lanosterol as substrate by HPLC analysis
[6] = target: T1, Lanosterol 14-alpha demethylase; assay: Binding affinity to recombinant full length human CYP51 expressed in Escherichia coli incubated for 30 sec using [3H] labelled substrate by HPLC analysis
A549 = assay: Antiproliferative activity against human A549 cells assessed as reduction in cell viability incubated for 24 hrs by BrdU based ELISA; type: functional; details: A549, 24 h
MCF7 = assay: Antiproliferative activity against human MCF7 cells assessed as reduction in cell viability incubated for 24 hrs by BrdU based ELISA; type: functional; details: MCF7, 24 h
MDA-MB-436 = assay: Antiproliferative activity against human MDA-MB-436 cells assessed as reduction in cell viability incubated for 24 hrs by BrdU based ELISA; type: functional; details: MDA-MB-436, 24 h
A-431 = assay: Antiproliferative activity against human A431 cells assessed as reduction in cell viability incubated for 24 hrs by BrdU based ELISA; type: functional; details: A-431, 24 h
[7] = Inhibition of human CYP51 T314I mutant expressed in Escherichia coli incubated for 1 hr using [3H] lanosterol as substrate by HPLC analysis

| logP ([1]; read-out: logP) | IC50 [2] [µM] | inhibition at 1 h [3] [%] | inhibition at 1 h [4] [%] | IC50 [5] [µM] | Kd [6] [µM] | logP [1] | IC50 [7] [µM] | SMILES | EC50 (A549) [µM] | EC50 (MCF7) [µM] | EC50 (MDA-MB-436) [µM] | EC50 (A-431) [µM] |
| --- | --- | --- | --- | --- | --- | --- | --- | --- | --- | --- | --- | --- |
| 5.8 | 5.2 | 8 | 0 | > 25 | – | – | – | O=C(N[C@@H](Cn1ccnc1)c1ccc(-c2ccc(F)cc2)cc1-c1ccco1)c1ccc(-c2nnc(-c3ccccc3)o2)cc1 | – | – | – | – |
| 5.3 | < 0.5 | 90 | 82 | 4.4 | 0.02 | – | – | CS(=O)(=O)c1cc(-c2ccccn2)cc(-c2nnc(-c3ccc(C(=O)N[C@@H](Cn4ccnc4)c4ccc(-c5ccc(F)cc5)cc4Cl)cc3)o2)c1 | – | – | – | – |
| 6.3 | < 0.5 | 98 | 98 | < 1 | 0.09 | – | – | O=C(N[C@@H](Cn1ccnc1)c1ccc(-c2ccc(F)cc2)cc1Cl)c1ccc(-c2nnc(-c3cc(F)cc(-c4ncncc4F)c3)o2)cc1 | – | – | – | – |
| 5.3 | 1.5 | 41 | 0 | > 25 | – | – | – | O=C(N[C@@H](Cn1ccnc1)c1ccc(-c2ccc(F)cc2)cc1-c1ccccc1)c1ccc(-c2nnc(-c3ccccc3)o2)cc1 | – | – | – | – |
| 6.8 | < 0.5 | 96 | 95 | < 1 | 0.15 | – | – | O=C(N[C@@H](Cn1ccnc1)c1ccc(-c2ccc(F)cc2)cc1Cl)c1ccc(-c2nnc(-c3cc(F)cc(-c4ccccn4)c3)o2)cc1 | – | – | – | – |
| 7.7 | < 0.5 | 73 | 25 | 15 | 0.47 | – | – | O=C(N[C@@H](Cn1ccnc1)c1ccc(-c2ccc(F)cc2)cc1Cl)c1ccc(-c2nnc(-c3cc(Br)cc4ccccc34)o2)cc1 | – | – | – | – |
| 5.8 | 3 | 1 | 0 | > 25 | – | – | – | O=C(N[C@@H](Cn1ccnc1)c1ccc(-c2ccc(F)cc2)c2ccccc12)c1ccc(-c2nnc(-c3ccccc3)o2)cc1 | – | – | – | – |
| 5.4 | < 0.5 | 89 | 82 | 3.6 | 0.13 | – | – | CS(=O)(=O)c1cc(Br)cc(-c2nnc(-c3ccc(C(=O)N[C@@H](Cn4ccnc4)c4ccc(-c5ccc(F)cc5)cc4Cl)cc3)o2)c1 | – | – | – | – |
| – | < 0.5 | 91 | 73 | 5.9 | – | 6.9 | 2.1 | O=C(N[C@@H](Cn1ccnc1)c1ccc(-c2ccc(F)cc2)cc1Cl)c1ccc(-c2nnc(-c3ccccc3)o2)cc1 | – | – | – | – |
| 5.8 | 12 | 0 | 0 | > 25 | – | – | – | COc1ccc(-c2cc(-c3ccc(F)cc3)ccc2[C@H](Cn2ccnc2)NC(=O)c2ccc(-c3nnc(-c4ccccc4)o3)cc2)cc1 | – | – | – | – |

| SMILES | logP ([1]; read-out: logP) | IC50 [2] [µM] | inhibition at 1 h [3] [%] | inhibition at 1 h [4] [%] | IC50 [5] [µM] | Kd [6] [µM] | logP [1] | IC50 [7] [µM] | EC50 (A549) [µM] | EC50 (MCF7) [µM] | EC50 (MDA-MB-436) [µM] | EC50 (A-431) [µM] |
| --- | --- | --- | --- | --- | --- | --- | --- | --- | --- | --- | --- | --- |
| O=C(N[C@@H](Cn1ccnc1)c1ccc(-c2ccc(F)cc2)cc1Cl)c1ccc(-c2nnc(-c3cc(-c4ccccn4)ccc3F)o2)cc1 | 6.8 | – | 93 | – | – | – | – | – | – | – | – | – |
| O=C(N[C@@H](Cn1ccnc1)c1ccc(-c2ccc(F)cc2)cc1F)c1ccc(-c2nnc(-c3ccccc3)o2)cc1 | 5.4 | < 0.5 | 64 | 33 | 24.4 | 0.09 | – | – | 10 to 30 | 10 to 30 | 10 to 30 | 10 to 30 |

From ChEMBL document CHEMBL4321832 (J Med Chem, 2019)
